Here are results for 23 molecules from US20220033397A1, “PHARMACEUTICAL COMPOUNDS AND THEIR USE AS INHIBITORS OF UBIQUITIN SPECIFIC PROTEASE 19 (USP19)” (ALMAC DISCOVERY LIMITED, priority 2018, published 2022).

As a reminder, the IC50 is the concentration at which inhibition is half-maximal.

In this experiment the target is T1, Full-length USP19 (Homo sapiens, UniProt O94966).
T1 construct: Full-length USP19 was purchased from Boston Biochem (E-576); purchased Boston Biochem E-576
T1 sequence (O94966 1-1318): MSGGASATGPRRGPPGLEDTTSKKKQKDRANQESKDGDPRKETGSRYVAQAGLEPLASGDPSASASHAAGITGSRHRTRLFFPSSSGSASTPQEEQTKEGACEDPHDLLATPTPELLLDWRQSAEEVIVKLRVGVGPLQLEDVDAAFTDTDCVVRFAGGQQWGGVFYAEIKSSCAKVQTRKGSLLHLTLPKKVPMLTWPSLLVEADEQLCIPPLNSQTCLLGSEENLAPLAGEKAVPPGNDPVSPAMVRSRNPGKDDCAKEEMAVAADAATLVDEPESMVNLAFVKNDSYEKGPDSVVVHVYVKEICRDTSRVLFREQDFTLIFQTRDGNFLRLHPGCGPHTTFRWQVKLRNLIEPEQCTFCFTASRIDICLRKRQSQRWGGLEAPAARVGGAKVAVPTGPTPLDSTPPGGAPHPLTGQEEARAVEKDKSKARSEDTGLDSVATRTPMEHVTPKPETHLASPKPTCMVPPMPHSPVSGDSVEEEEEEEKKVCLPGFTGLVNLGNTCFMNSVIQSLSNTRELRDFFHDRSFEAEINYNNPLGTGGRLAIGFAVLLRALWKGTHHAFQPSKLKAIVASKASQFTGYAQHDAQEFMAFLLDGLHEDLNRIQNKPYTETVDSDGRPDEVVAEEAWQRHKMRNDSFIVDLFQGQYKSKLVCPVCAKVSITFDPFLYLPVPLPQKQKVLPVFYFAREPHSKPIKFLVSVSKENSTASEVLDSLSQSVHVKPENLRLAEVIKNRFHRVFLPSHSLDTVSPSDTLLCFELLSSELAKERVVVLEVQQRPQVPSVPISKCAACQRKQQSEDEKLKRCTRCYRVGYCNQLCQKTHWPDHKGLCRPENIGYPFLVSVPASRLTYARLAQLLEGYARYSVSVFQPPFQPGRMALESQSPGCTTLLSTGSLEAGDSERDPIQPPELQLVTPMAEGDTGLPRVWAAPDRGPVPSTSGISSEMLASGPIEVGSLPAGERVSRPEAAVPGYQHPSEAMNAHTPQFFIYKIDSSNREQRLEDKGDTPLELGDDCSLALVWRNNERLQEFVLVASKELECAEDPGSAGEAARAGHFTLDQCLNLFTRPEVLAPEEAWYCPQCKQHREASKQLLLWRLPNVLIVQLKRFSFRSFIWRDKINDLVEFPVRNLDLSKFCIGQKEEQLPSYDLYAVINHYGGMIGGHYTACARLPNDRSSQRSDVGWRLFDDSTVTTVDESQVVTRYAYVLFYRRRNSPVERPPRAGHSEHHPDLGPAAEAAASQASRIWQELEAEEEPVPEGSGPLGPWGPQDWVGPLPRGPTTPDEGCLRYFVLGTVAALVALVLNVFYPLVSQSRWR
Description: USP19 fluorescence polarisation (FP) homogeneous assay with Ubiquitin-Lys-TAMRA substrate. It is filed as biochemical. Conditions: 2.5 nM USP19, 30 min pre-incubation, average of at least two duplicate experiments. Summed up:
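Full-length USP19 preincubated 30 min at RT with inhibitor (200 μM to 2 μM series, 8–18 points) before adding 500 nM Ubiquitin-Lys-TAMRA substrate.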

Turning to `O=C(N1CC[C@@](O)(Cn2cnc(C3CC3)cc2=O)C2(CCCC2)C1)N1CCNC[C@H]1c1ccccc1` [Example 292, 6-Cyclopropyl-3-(((S)-10-hydroxy-7-((R)-2-phenylpiperazine-1-carbonyl)-7-azaspiro[4.5]decan-10-yl)methyl)pyrimidin-4(3H)-one], the IC50 is less than 0.5 µM.

On to `O=C(N1CC[C@@](O)(Cn2cnc(-c3ccccc3)cc2=O)C2(CCCC2)C1)N1CCOC[C@H]1c1nc2ccccc2[nH]1` [Example 293, 3-(((S)-7-((R)-3-(1H-Benzo[d]imidazol-2-yl)morpholine-4-carbonyl)-10-hydroxy-7-azaspiro[4.5]decan-10-yl)methyl)-6-phenylpyrimidin-4(3H)-one], for which the IC50 lay within 50 to 250 µM.

As for `C[C@H](CC1CCCCC1)C(=O)N1CCC(O)(Cn2cc(-c3cccnc3)ncc2=O)C2(CCCC2)C1` (stereo partly drawn) [Example 19, 1-((7-((R)-3-Cyclohexyl-2-methylpropanoyl)-10-hydroxy-7-azaspiro[4.5]decan-10-yl)methyl)-5-(pyridin-3-yl)pyrazin-2(1H)-one], the half-maximal inhibitory concentration (IC50) lay in the range of 0.5 to 5 µM.

On to `O=C(N1CC[C@@](O)(Cn2cnc(-c3ccccc3)cc2=O)C2(CCCC2)C1)N1CCNCC1c1ccsc1` (stereo partly drawn) [Example 337, 3-(((10S)-10-Hydroxy-7-(2-(thiophen-3-yl)piperazine-1-carbonyl)-7-azaspiro[4.5]decan-10-yl)methyl)-6-phenylpyrimidin-4(3H)-one], for which the IC50 is less than 0.5 µM.

Regarding `O=C(N1CC[C@@](O)(Cn2cnc(-c3ccccc3F)cc2=O)C2(CCCC2)C1)N1CCNC[C@H]1c1cccc(F)c1` [Example 355, 6-(2-Fluorophenyl)-3-(((S)-7-((R)-2-(3-fluorophenyl)pipera-zine-1-carbonyl)-10-hydroxy-7-aza-spiro[4.5]decan-10-yl)methyl)pyrimidin-4(3H)-one], the IC50 is less than 0.5 µM.

In the case of `Cc1nc([C@@H]2CCCN2C(=O)N2CCC(O)(Cn3cnc(-c4ccccc4)cc3=O)C3(CCCC3)C2)n[nH]1` (stereo partly drawn) [Example 269, 3-((10-Hydroxy-7-((S)-2-(5-methyl-1H-1,2,4-triazol-3-yl)pyrrolidine-1-carbonyl)-7-azaspiro[4.5]decan-10-yl)methyl)-6-phenylpyrimidin-4(3H)-one], the IC50 lay in the range of 50 to 250 µM.

Consider `O=C(N1CC[C@@](O)(Cn2cnc(-c3ccccc3)cc2=O)C2(CCCC2)C1)N1CCNC[C@H]1c1ccccc1F` [Example 370, 3-(((10S)-7-(2-(2-Fluorophenyl)pipera-zine-1-carbonyl)-10-hydroxy-7-azaspiro[4.5]decan-10-yl)methyl)-6-phenylpyrimidin-4(3H)-one], for which the 50% inhibitory concentration (IC50) was less than 0.5 µM.

On to `CC1(C)CCCN1C(=O)N1CCC(O)(Cn2cnc(-c3ccccc3)cc2=O)C2(CCCC2)C1` (centres unmarked) [Example 240, 3-((7-(2,2-Dimethylpyrrolidine-1-carbonyl)-10-hydroxy-7-azaspiro[4.5]decan-10-yl)methyl)-6-phenylpyrimidin-4(3H)-one], for which the 50% inhibitory concentration (IC50) was 5 to 50 µM.

Take `O=C(N1CCC(O)(Cn2cnc(-c3ccccc3)cc2=O)CC1)N1CCNC[C@H]1c1ccccc1` [Example 297, (R)-3-((4-Hydroxy-1-(2-phenylpiperazine-1-carbonyl)piperidin-4-yl)methyl)-6-phenylpyrimidin-4(3H)-one]: the half-inhibitory concentration (IC50) is less than 0.5 µM.

For the molecule `O=C(N1CCC(O)(Cn2cc(F)c(-c3ccccc3)cc2=O)C2(CCCC2)C1)N1CCNC[C@H]1c1ccccc1` (stereo partly drawn) [Example 331, 5-Fluoro-1-((10-hydroxy-7-((R)-2-phenylpiperazine-1-carbonyl)-7-azaspiro[4.5]decan-10-yl)methyl)-4-phenylpyridin-2(1H)-one], the IC50 was less than 0.5 µM.

`O=C(N1CC[C@@](O)(Cn2cnc(-c3ccc4c(c3)OCC4)cc2=O)C2(CCCC2)C1)N1CCNC[C@H]1c1ccccc1` [Example 353, 6-(2,3-Dihydrobenzofuran-6-yl)-3-(((S)-10-hy-droxy-7-((R)-2-phenylpiperazine-1-carbonyl)-7-aza-spiro[4.5]decan-10-yl)methyl)pyrimidin-4(3H)-one]: the IC50 is less than 0.5 µM.

Consider `C[C@H](CC(F)(F)F)C(=O)N1CCC(O)(Cn2ccc3nc(N(C)C)ncc3c2=O)C2(CCCC2)C1` (stereo partly drawn) [Example 58, 2-(Dimethylamino)-6-((10-hydroxy-7-((R)-4,4,4-trifluoro-2-methylbutanoyl)-7-azaspiro[4.5]decan-10-yl)methyl)pyrido[4,3-d]pyrimidin-5(6H)-one], for which the half-maximal inhibitory concentration (IC50) lay in the range of 0.5 to 5 µM.

Take `C[C@H](CC1CCCCC1)C(=O)N1CCC(O)(Cn2cnc3ccncc3c2=O)C2(CCCC2)C1` (stereo partly drawn) [Example 157, 3-((7-((R)-3-Cyclohexyl-2-methylpropanoyl)-10-hydroxy-7-azaspiro[4.5]decan-10-yl)methyl)pyrido[4,3-d]pyrimidin-4(3H)-one]: the IC50 was in the range of 0.5 to 5 µM.

Consider `CC(=O)N1CCN(CC2(O)CCN(C(=O)[C@H](C)CC(F)(F)F)CC23CCCC3)C(=O)C1` (stereo partly drawn) [Example 112, 4-Acetyl-1-((10-hydroxy-7-((R)-4,4,4-trifluoro-2-methylbutanoyl)-7-azaspiro[4.5]decan-10-yl)methyl)piperazin-2-one], for which the IC50 was 5 to 50 µM.

As to `O=C(N1CCC(O)(Cn2cnc(-c3ccccc3)cc2=O)C2(CCCC2)C1)N1CCOCC1C1CC1` (centres unmarked) [Example 248, 3-((7-(3-Cyclopropylmorpholine-4-carbonyl)-10-hydroxy-7-azaspiro[4.5]decan-10-yl)methyl)-6-phenylpyrimidin-4(3H)-one], the IC50 lay in the range of 5 to 50 µM.

As to `C[C@H](CC1CCCCC1)C(=O)N1CCC(O)(Cn2cnc3[nH]ccc3c2=O)C2(CCCC2)C1` (stereo partly drawn) [Example 53, 3-((7-((R)-3-Cyclohexyl-2-methylpropanoyl)-10-hydroxy-7-azaspiro[4.5]decan-10-yl)methyl)-3,7-dihydro-4H-pyrrolo[2,3-d]pyrimidin-4-one], the half-inhibitory concentration (IC50) was 5 to 50 µM.

As for `O=C(N1CC[C@@](O)(Cn2cnc(-c3cccc(F)c3)cc2=O)C2(CCCC2)C1)N1CCNC[C@H]1c1ccccc1` [Example 315, 6-(3-Fluorophenyl)-3-(((S)-10-hydroxy-7-((R)-2-phenylpiperazine-1-carbonyl)-7-azaspiro[4.5]decan-10-yl)methyl)pyrimidin-4(3H)-one], the concentration for half-maximal inhibition (IC50) was less than 0.5 µM.

As for `O=C(N1CC[C@@](O)(Cn2ccc(Cl)cc2=O)C2(CCCC2)C1)N1CCNC[C@H]1c1ccccc1` [Example 326, 4-Chloro-1-(((S)-10-hydroxy-7-((R)-2-phenylpiperazine-1-carbonyl)-7-azaspiro[4.5]decan-10-yl)methyl)pyridin-2(1H)-one], the half-inhibitory concentration (IC50) is less than 0.5 µM.

Regarding `CS(=N)(=O)c1cn(CC2(O)CCN(C(=O)N3CCNC[C@H]3c3ccccc3)CC23CCCC3)c(=O)cc1-c1ccccc1` (stereo partly drawn) [Example 189, 1-((10-Hydroxy-7-((R)-2-phenylpiperazine-1-carbonyl)-7-azaspiro[4.5]decan-10-yl)methyl)-5-(S-methylsulfonimidoyl)-4-phenylpyridin-2(1H)-one], the IC50 is less than 0.5 µM.

For the molecule `Cc1nc2ccccc2c(=O)n1CC1(O)CCN(C(=O)[C@H](C)CC2CCCCC2)CC12CCCC2` (stereo partly drawn) [Example 120, 3-((7-((R)-3-Cyclohexyl-2-methylpropanoyl)-10-hydroxy-7-azaspiro[4.5]decan-10-yl)methyl)-2-methylquinazolin-4(3H)-one], the IC50 was 0.5 to 5 µM.

With `C[C@H](CC1CCCCC1)C(=O)N1CCC(O)(CN2CCNCC2=O)C2(CCCC2)C1` (some centres unmarked) [Example 39], the IC50 was in the range of 0.5 to 5 µM.

For `CSc1ncc2c(=O)n(C[C@]3(O)CCN(C(=O)N4CCNC[C@H]4c4ccccc4)CC34CCCC4)ccc2n1` [Example 184, 6-(((S)-10-Hydroxy-7-((R)-2-phenylpiperazine-1-carbonyl)-7-azaspiro[4.5]decan-10-yl)methyl)-2-(methylthio)pyrido[4,3-d]pyrimidin-5(6H)-one], the IC50 was less than 0.5 µM.

Regarding `O=C(N1CC[C@@](O)(Cn2cnc(-c3cccc(F)c3)cc2=O)C2(CCCC2)C1)N1CCNC[C@H]1c1cc(F)ccc1F` [Example 376, 3-(((S)-7-((R)-2-(2,5-Difluorophenyl)piper-azine-1-carbonyl)-10-hydroxy-7-azaspiro[4.5]decan-10-yl)methyl)-6-(3-fluorophenyl)pyrimi-din-4(3H)-one], the IC50 is less than 0.5 µM.
